Results on two molecules are retold here after patent EP4360643A1, “SOCS1 DERIVED PEPTIDES FOR USE IN THE TREATMENT OF LIVER DISEASES” (Fundacion Instituto De Investigacion Sanitaria Fundacion …, priority 2022, dated 2024).

The subject of experiment [1] is ApoE-/- mice fed with HFD. In words: NAFLD induced by high-fat diet (HFD) in ApoE-/- mice. In kind it is in vivo. The note with it: 8 weeks of treatment. As for the experimental part:
In the second model, apolipoprotein E deficient mice (ApoE-/-, males, 10-12 weeks old) were administered high-fat diet (HFD, TD.88137, Envigo) for 8 weeks and treated with vehicle (n=8) or SOCS1-derived peptides (S1, n=6; liPS5, n=6; cPS5, n=6; cPS5Nal, n=6) at the dose of 4µg/g (in 200 µL) via intraperitoneal injection 3 days per week. A group of ApoE-/- mice under standard diet (Chow, n=6) was included as control.
Mice were housed in ventilated cages (2-4 mice per cage) with usual bedding material and environmental enrichment in a conventional temperature-controlled room (20-22°C) with 12 h light/dark cycle and free access to water and food. Blood glucose (glucometer; NovaPro, Menarini Diagnostics) and body weight levels were monitored once weekly during the follow-up period. At the end of the intervention studies, mice were anaesthetized (ketamine 100 mg/kg and xylazine 10 mg/kg) and euthanized, and blood and tissue samples were collected.
Hepatic lipids were extracted as previously described. Commercial colorimetric kits were used to measure concentrations of total cholesterol (STA-384, Cell Biolabs) and TG (11528, Biosystems), and values were normalized by tissue weight and mg of protein (BCA assay), respectively.
At the time of harvest, liver samples were fixed in 10% buffered formalin, processed for paraffin-embedding and cut (3-4 µm) or embedded in OCT compound and cryosectioned into 7 µm slices. Deparaffinized sections were stained with hematoxylin/eosin and Masson's trichrome to evaluate the histological NAFLD activity score (NAS) considering steatosis, lobular inflammation, ballooning and fibrosis, as previously described or were stained with picrosirious red to assess collagen deposition and fibrotic areas. Periodic Acid Schiff staining was performed for glycogen deposition assessment. Cryosections were stained with Oil red O/ hematoxylin to detect lipid accumulation.
For immunohistochemistry, liver sections were deparaffinized and […] through graded xylene and ethanol. After antigen retrieval (0.01 M citrate buffer pH 6 for 20 min) and blockade of endogenous peroxidase (3% H2O2 in methanol for 30 min) and nonspecific binding (8% host serum for 30 min), slides were incubated overnight at 4°C with primary antibodies against phosphorylated STAT1 (P-STAT1, Tyr701; Thermo Fisher Scientific Cat# 44-376G, RRID:AB_2533642), P-STAT3 (Ser727, Cell Signalling Technology Cat# 9134, RRID:AB_331589), P-nuclear factor erythroid 2-related factor 2 (NRF2, Ser40; Abcam Cat# ab76026, RRID:AB_1524049) and F4/80 monocytes/macrophages (Bio-Rad Cat# MCA497R, RRID:AB_323279). After rinsing in PBS, samples were incubated with respective secondary antibodies conjugated with either horseradish peroxidase or biotin (followed by avidin-biotin complex reagent). Immunoreactive cells were then visualized by the addition of peroxidase substrates (3, 3-diaminobenzidine or 3-amino-9-ethylcarbazole; DAKO) and counterstained with hematoxylin.
All the histological evaluations were conducted in a blinded fashion. Positive staining was quantified in at least 2 sections per mice using Image-Pro Plus software (Media Cybernetics) and expressed as percentage or number of positive cells per area.
(§1) Total RNA from mouse liver and hepatocytes was extracted using TRI Reagent (Molecular Research Center). Complementary DNA was produced via reverse transcription using High Capacity cDNA Reverse Transcription Kit (Applied Biosystems). The gene expression of mouse genes was determined in duplicate by quantitative real-time PCR using predesigned TaqMan gene expression assays (Applied Biosystems) or Premix ExTaq (Takara). The results for each sample were normalized to the 18S rRNA housekeeping expression, and data expressed as fold increases versus chow diet (in vivo studies) or basal conditions (in vitro studies).

Experiment [2] has as its system mouse hepatocyte cell line. The experiment can be described thus: In vitro NAFLD model: hepatocytes exposed to palmitic acid (Oil red O staining, real-time PCR). In kind it is cell-based. Conditions: induced by palmitic acid 400 µM, 6 hours. As for the experimental part:
Immortalized mouse hepatocyte cell line (kindly provided by Dr. Valverde, IIBm Alberto Sols, Madrid) were cultured in Dulbecco's Modified Eagle Medium (DMEM; D6546, Sigma-Aldrich) containing 10% FBS, 100 U/mL penicillin, 100 µg/mL streptomycin and 2 mM L-glutamine (Sigma-Aldrich) and used between 2nd-8th passages. Cells were incubated for 24 hours in medium with 0.5% FBS, pre-treated for 90 min with optimal doses of peptides (59 µM S1 and 25 µM liPS5) and then stimulated for additional 2-16 h with palmitic acid (P-0500, Sigma-Aldrich; stock solution diluted in fatty acid-free BSA to 5 mM) at a final concentration of 400 µM. Cell viability was confirmed by the 3-(4,5-dimethylthiazol-2-yl)-2,5-diphenyltetrazolium bromide tetrazolium (MTT) assay. Lipid accumulation in hepatocytes was determined by Oil red O staining.
as §1
For orientation: Real-time PCR tracks product formation cycle by cycle.

The subject of experiment [3] is BKS db/db mice. In words: T2D-induced liver damage in BKS db/db mice (leptin receptor deficiency). In kind it is in vivo. The note with it: Losartan alone, 25 µg/g in drinking water, 7 weeks. As to the method:
Leptin receptor deficiency in diabetes-susceptible strain BKS db/db: Homozygous C57BLKS (BKS) inbred db/db mice (16-weeks old males; Envigo) were randomized to receive in drinking water an angiotensin receptor blocker (Losartan 25 µg/g body weight) or vehicle as tap water (n=25). In addition, two groups of 8 losartan-treated mice were randomized to receive S1 peptide (10 µg/g body weight) or JAK1/2 inhibitor (Baricitinib 3 µg/g body weight) via intraperitoneal injection 3 days per week for 7 weeks. All groups were monitored during 7 weeks of treatment. Heterozygous littermates (db/m; n=10) were used as non-diabetic, non-obese control group.
Mice were housed in ventilated cages (2-4 mice per cage) with usual bedding material and environmental enrichment in a conventional temperature-controlled room (20-22°C) with 12 h light/dark cycle and free access to water and food. Blood glucose (glucometer; NovaPro, Menarini Diagnostics) and body weight levels were monitored once weekly during the follow-up period. […]
At the end of the studies, serum levels of glucose, triglycerides (TG), total cholesterol, high-density lipoprotein cholesterol (HDL), low-density lipoprotein cholesterol (LDL), alanine aminotransferase (ALT or GPT), aspartate aminotransferase (AST), alkaline phosphatase (ALP) and albumin were determined by automated procedures (Roche Cobas autoanalyzer). […]

[4] abbreviates: 4µg/g intraperitoneal 3 days per week, vs vehicle.

Bridges are numbered along the chain shown (N, C = ends). Where no end group is shown, it is not given here. [ ]: non-standard residue; d: D form. The star is where a group is joined. 1Nal = N[C@@H](Cc1cccc2ccccc12)C(=O)O; Acm = CC(=O)NC*

For the molecule “DTC(Acm)RQT(Nal1)RKH (lactam bridge D1-K9) (DTC(Acm)RQT[1Nal]RKH; lactam 1-9) [cPS5Nal, cyclic PS5 with additional non-natural residue 1-naphthylalanine]”, in experiment [1], the “gene expression of CCL5 in mouse liver” value is reported as “effectively prevented”, the “gene expression of CCl2 in mouse liver” value is on record as “effectively prevented”, the “gene expression of CXCL10 in mouse liver” value is “effectively prevented” and the “gene expression of IL-6 in mouse liver” value is reported as “effectively prevented”. For the same molecule, in experiment [1], the “gene expression of TNFα in mouse liver” value is reported as “effectively prevented” and the “gene expression of scavenger receptor CD36 in mouse liver” value was “effectively prevented”. In addition, in experiment [1] (setting [4]), the “ballooning (liver sections)” value is on record as “marked decrease”; the “hepatic steatosis (liver sections, hematoxylin/eosin, Oil red O)” value was “marked decrease”; the “inflammation (liver sections, F4/80)” value was “marked decrease”. For the same molecule, in experiment [2], the “expression of inflammatory gene CCL2 (real-time PCR)” value is recorded as “downregulated”, the “expression of inflammatory gene IL-6 (real-time PCR)” value is “downregulated” and the “expression of scavenger receptor CD36 (real-time PCR)” value is listed as “downregulated”.

`CCCCc1nc(Cl)c(CO)n1Cc1ccc(-c2ccccc2-c2nn[nH]n2)cc1` [Losartan]: in experiment [3], the hepatoprotective effect result is “did not produce an hepatoprotective effect”.
